The source of these data is patent publication US20190054041A1, “USE OF NOOTKATONE” (INSTITUTE OF TROPICAL BIOSCIENCE AND BIOTECHOLOGY CHINESE …, priority 2016, published 2019).

Data set [1] relates to ICR mice. The data set can be described thus: Tail suspension test of mice. As to conditions: once a day for 14 days, 1.5 h after last administration, last 4 min of 6 min, blank control 151.1 ± 20.1, **P < 0.01.
Data set [2] has as its system ICR mice. As to conditions: intragastric once a day for 14 days, nootkatone 1-2 mg/Kg, Prozac 20 mg/Kg.
Data set [3] concerns ICR mice. The data set can be described thus: Forced swimming test of mice. As to conditions: once a day for 14 days, 1.5 h after last administration, last 4 min of 6 min, blank control 148.1 ± 18.9, **P < 0.01.
In the next data set the test system is patients with depression. The data set can be described thus: Clinical efficacy observation by reduction rate of HAM-D. The data set is classed as in vivo, human. As to conditions: 40 patients, oral 1.5 mg nootkatone monomer/Kg/time, twice a day, 6 weeks. An excerpt: Forty patients were selected, wherein 20 were male and 20 were female, and their disease durations were from 1 month to 2 years. Diagnosis criteria of depression that conformed to Chinese Classification and Diagnostic Criteria of Mental Disorders scored […] according to the first 17 items in the Hamilton Depression Rating Scale (HAM-D) shown in Table 4. First-onset patients, or patients that had not taken antidepressants and antipsychotics and had not been subjected to electric shock therapy over the past week, and patients with depressive episodes of unipolar affective disorder, aged 20-50 years. Patients having depressive disorder caused by bipolar affective disorder and other causes, severe suicidal tendency, and severe abnormalities in laboratory tests (pregnant or lactating women) were eliminated.
Comment: 0 to 4 in the items of Standard for Evaluation and Point referred to the scores, and the standard for evaluation is: the total score <7 means normality; the total score between 7 and 17 means possible depression; the total score between 17 and 24 means definite depression; and the total score >24 means severe depression.
Nootkatone preparation was used to treat the 40 patients, and the administration manner was: orally taking, 1.5 mg nootkatone monomer/Kg/time, twice a day, and 6 weeks were one course of treatment. […] After 1 course of treatment, reduction rate of HAM-D was used to measure the curative efficacy of the traditional Chinese medicine on patients, reduction rate of HAM-D=(total scores before the treatment−total scores after the treatment)/total scores before the treatment×100%.
The standard of curative efficacy evaluation is hereinafter:
cure: reduction rate of HAMD is >75%;
improved: reduction rate of HAMD is from 25% to […];
invalid: reduction rate of HAMD is <25%.

The subject of data set [4] is ICR mice. The data set can be described thus: 5-HTP induced head twitching mouse model. As to conditions: once a day for 14 days, 150 mg/Kg 5-HTP i.p. 0.5 h after last administration, counted in 20 min, blank control 34.1 ± 18.1, **P < 0.01.
The mark [5] stands for this setting: 1 mg/Kg (small dose) intragastric.
Where [6] appears, read: 1.5 mg/Kg (medium dose) intragastric.
[7] abbreviates: 2 mg/Kg (large dose) intragastric.

`C=C(C)[C@@H]1CCC2=CC(=O)C[C@@H](C)[C@]2(C)C1` [Nootkatone, nootkatone]: the “Immobility Time, tail suspension test” value is 84.0 ± 17.6** S in the data set on ICR mice [1] (setting [5]), 80.2 ± 21.6** S with ICR mice [1] (setting [6]) and 75.1 ± 19.6** S with ICR mice [1] (setting [7]). In addition, in the data set on ICR mice [2], the “Toxicity judged from weight and fur appearance of mice” value is on record as “neither nootkatone nor the positive drug Prozac has toxicity”. Besides, the “Immobility Time, forced swimming test” value with ICR mice [3] (setting [5]) is reported as 74.0 ± 26.9** s; in the data set on ICR mice [3] (setting [6]), 70.2 ± 22.3** s; in the data set on ICR mice [3] (setting [7]) it was 66.1 ± 21.6** s. The “Adverse reactions in patients” value with patients with depression is “no case has adverse reactions”. This compound came in with a Curative effective rate with patients with depression of 95%. Further, the “Share of patients invalid (reduction rate of HAMD <25%)” value in the data set on patients with depression (2 cases) is reported as 5%. In addition, the “Share of patients improved (reduction rate of HAMD from 25% to 50%)” value in the data set on patients with depression (10 cases) is on record as 25%. In the data set with patients with depression (14 cases), the “Share of patients cured (reduction rate of HAMD >75%)” value amounted to 35%. Moreover, the “Share of patients significantly improved (reduction rate of HAMD from 51% to 75%)” value in the data set with patients with depression (14 cases) is given as 35%. Besides, the “Head-Twitching Number” value in the data set with ICR mice [4] (setting [5]) is 58.0 ± 26.2** Time; in the data set on ICR mice [4] (setting [6]), 60.2 ± 25.1** Time; in the data set with ICR mice [4] (setting [7]), 63.1 ± 22.5** Time.

Take `CNCCC(Oc1ccc(C(F)(F)F)cc1)c1ccccc1` (centres unmarked) [Prozac, fluoxetine, reference compound]: the “Immobility Time, tail suspension test” value with ICR mice [1] (20 mg/Kg intragastric) was 87.9 ± 22.0** S. For the same compound, in the data set on ICR mice [2], the “Weight of mice before administration, one week and 2 weeks after administration” value is reported as “no significant difference”. Also, the “Immobility Time, forced swimming test” value in the data set on ICR mice [3] (20 mg/Kg intragastric) is listed as 80.9 ± 20.4** s. The “Head-Twitching Number” value in the data set with ICR mice [4] (20 mg/Kg intragastric) is recorded as 57.9 ± 10.4** Time.
